{
  "source": "patent US9211294B2",
  "about": "“Phenothiazine compounds for treating mild cognitive impairment” (WisTa Laboratories Ltd., priority 2007, dated 2015)",
  "key": {"[1]": {"tested_on": "scopolamine-treated NMRI mice", "assay": "Morris water maze spatial reference memory task, reversal of scopolamine-induced cognitive deficits", "format": "in vivo", "conditions": "for Learning / Thigmotaxis / S-T memory: mg/kg i.p.; for S-T memory: probe 1.5 h", "procedure": "(§1) Female, NMRI mice aged 3-4 months were from Harlan, UK.\nMice were group housed (7-9 per cage) and maintained with light from 7 am-7 pm and experiments carried out in the light phase. […] They were separated into 6 groups to receive drug administrations as follows:\n(§2) The injection volume for drugs was 0.2 ml per 30 g animal weight and they were injected intraperitoneally. The doses were as indicated above.\nThe water maze consisted of a water-filled pool (1.5 m diameter; 20±2° C.) in which a platform submerged 1 cm below water surface was the only means of escape. Mice were released from 4 cardinal sites (South, West, North and East) facing the wall of the pool in random fashion and thus had to acquire spatial knowledge of the exact platform location by spatial mapping procedures using distal cues.\nEach animal was given 6 trials/day and was allowed to swim for a maximum time of 60 seconds and stay 30 seconds on the platform. […] An inter-trial interval of 10-20 minutes was given. The animals were trained for 4 consecutive days and received probe trials (free swim for 60 seconds without platform in the pool) approximately 1.5 and 24 hours post-training to test short and long-term memory, respectively. The behaviour of animals was recorded via an overhead camera and data transmitted to the PC for online storage and analysis (EthoVision basic version 3.0.8. Noldus Information Technology, Netherlands).\nProbe trial data were analysed by one-way ANOVA and the appropriate post-hoc tests (Bonferroni's multiple comparison test or Newman Keuls) were carried out to determine the source of a significant main effect or interaction. Analyses were performed two-tailed and the null hypothesis was […] at probability levels of 5% (p<0.05). Only terms for reliable differences are mentioned in the text for simplicity."}, "saline treated NMRI mice": {"tested_on": "saline treated NMRI mice", "assay": "Morris water maze spatial reference memory task, drug given after saline (otherwise unimpaired animals, side-effect profiling)", "format": "in vivo", "conditions": "saline then Rivast (0.125), mg/kg i.p.", "procedure": "as §1\nMice were group housed (7-9 per cage) and maintained with light from 7 am-7 pm and experiments carried out in the light phase. There were 82 mice in total, of which 12 were excluded from the study for circling behaviour during the water maze test. They were separated into 6 groups to receive drug administrations as follows:\nas §2\nBehavioural testing was undertaken using the Morris water maze spatial navigational task (Morris, 1984). […]\nEach animal was given 6 trials/day and was allowed to swim for a maximum time of 60 seconds and stay 30 seconds on the platform. […] The behaviour of animals was recorded via an overhead camera and data transmitted to the PC for online storage and analysis (EthoVision basic version 3.0.8. Noldus Information Technology, Netherlands). […]\nBehavioural data of acquisition learning were analysed by conventional statistics (Graph Pad Prism version 4.01) using factorial repeated measures analysis of variance (ANOVA) with treatment as between-subject and day/trial as within-subject factor followed by planned comparisons between selected groups. […]"}, "mice": {"tested_on": "mice", "format": "in vivo", "conditions": "for highest effective and safe dose: i.p., mice"}, "[2]": {"conditions": "in vivo, ip"}, "[3]": {"tested_on": "NMRI mice aged 2-3, 6 and 13 months", "assay": "Water maze learning and memory in young and aged NMRI mice", "conditions": "2-3 month mice; 1.5 hours; MTC 1 mg/kg i.p."}, "[4]": {"assay": "Brain levels of MTC after administration", "conditions": "post administration"}, "[5]": {"conditions": "scopolamine 0.5 mg/kg then rivastigmine 0.5 mg/kg, probe trials"}, "[6]": {"conditions": "scopolamine (0.5) then Rivast (0.1)"}, "[7]": {"conditions": "scopolamine (0.5) then Rivast (0.125)"}, "[8]": {"conditions": "scopolamine (0.5) then Rivast (0.125), listed as Rivast"}, "[9]": {"conditions": "scopolamine (0.5) then Rivast (0.25)"}, "[10]": {"conditions": "scopolamine (0.5) then Rivast (0.25), listed as Rivast"}, "[11]": {"conditions": "scopolamine (0.5) then Rivast (0.5)"}, "[12]": {"conditions": "scopolamine (0.5) then Rivast (0.5), listed as Rivast"}},
  "note": "“Also recorded” adds a separate entry of the source. Counter-ions that a name gives are not always drawn.",
  "data": [
    {"compound": "CCN(C)C(=O)Oc1cccc([C@H](C)N(C)C)c1", "note": "[rivastigmine, rivastigmine tartrate]", "values": [
      {"measurement": "dose required to fully restore spatial learning", "setting": "[1]; administered acutely, scopolamine-treated NMRI mice", "result": "> 0.125", "unit": "mg/kg"},
      {"measurement": "overall learning between day 1 and 4 (overall reduction in path length)", "setting": "[1]; scopolamine 0.5 mg/kg then rivastigmine 0.1 mg/kg", "result": "substantial overall improvement"},
      {"measurement": "thigmotaxis during memory phase", "setting": "[1]; scopolamine 0.5 mg/kg then rivastigmine 0.5 mg/kg", "result": "not significantly different from either scopolamine or saline"},
      {"measurement": "logarithmic transform of pathlength (advanced analysis)", "setting": "[1]; scopolamine 0.5 mg/kg then rivastigmine 0.5 mg/kg i.p., by day 4", "result": "reverse the deficit"},
      {"measurement": "proportion of time spent in target quadrant (probe trials)", "setting": "[1]; scopolamine 0.5 mg/kg then rivastigmine 0.5 mg/kg, pooled day 4 and day 5", "result": "did not reverse"},
      {"measurement": "latency (composite parameter, temporal accuracy)", "setting": "[1]; [5]", "result": "no effect at all"},
      {"measurement": "localisation (composite parameter, spatial accuracy)", "setting": "[1]; [5]", "result": "not able to reverse the deficit"},
      {"measurement": "Learning", "setting": "[1]; [6]", "result": "ineffective"},
      {"measurement": "Thigmotaxis", "setting": "[1]; [6]", "result": "↓"},
      {"measurement": "Learning", "setting": "[1]; scopolamine (0.5) then Rivast (0.1), listed as Rivast", "result": "↓"},
      {"measurement": "S-T memory", "setting": "[1]; [6]", "result": "↓"},
      {"measurement": "Thigmotaxis", "setting": "[1]; [7]", "result": "↑"},
      {"measurement": "Learning", "setting": "[1]; [8]", "result": "↑"},
      {"measurement": "Learning", "setting": "[1]; scopolamine (0.5) then Rivast (0.125), listed as Rivastigmine", "result": "fully reversed"},
      {"measurement": "S-T memory", "setting": "[1]; [7]", "result": "spatial bias was established"},
      {"measurement": "S-T memory", "setting": "[1]; [8]", "result": "↑"},
      {"measurement": "Learning", "setting": "[1]; [9]", "result": "only partial"},
      {"measurement": "Thigmotaxis", "setting": "[1]; [9]", "result": "↓"},
      {"measurement": "Learning", "setting": "[1]; [10]", "result": "↑↓"},
      {"measurement": "S-T memory", "setting": "[1]; [9]", "result": "memory deficit"},
      {"measurement": "S-T memory", "setting": "[1]; [10]", "result": "↓"},
      {"measurement": "Thigmotaxis", "setting": "[1]; [11]", "result": "reversed"},
      {"measurement": "Learning", "setting": "[1]; [12]", "result": "↑"},
      {"measurement": "Thigmotaxis", "setting": "[1]; [12]", "result": "↑"},
      {"measurement": "Learning", "setting": "[1]; scopolamine (0.5) then Rivast (0.5), listed as Rivastigmine", "result": "completely reversed; also recorded: fully reversed"},
      {"measurement": "S-T memory", "setting": "[1]; [11]", "result": "memory deficit"},
      {"measurement": "S-T memory", "setting": "[1]; [12]", "result": "↓"},
      {"measurement": "Learning", "setting": "saline treated NMRI mice", "result": "did not alter spatial learning"},
      {"measurement": "S-T memory", "setting": "saline treated NMRI mice; probe 1.5 h", "result": "↑↓"},
      {"measurement": "adverse effects (motor coordination problems, ataxia, brief episodes of convulsions)", "setting": "mice; doses of 0.5 and 0.25 mg/kg, in the absence of scopolamine treatment", "result": "severe adverse effects"},
      {"measurement": "highest effective and safe dose", "setting": "mice", "result": 0.125, "unit": "mg/kg"}
    ]},
    {"compound": "CN(C)c1ccc2nc3ccc(N(C)C)cc3[s+]c2c1", "note": "[MTC, methyl-thioninium chloride]", "values": [
      {"measurement": "saturation of dose-response relationship for learning and memory formation", "setting": "[1]; linear dose-response", "result": "about 4 mg/kg"},
      {"measurement": "highest effective and safe dose", "setting": "mice", "result": 4, "unit": "mg/kg"},
      {"measurement": "time of peak brain levels", "setting": "[2]", "result": "30 to 60", "unit": "min"},
      {"measurement": "time spent in the target quadrant", "setting": "[3]", "result": "no effect"}
    ]},
    {"compound": "methyl-thioninium chloride [MTC]", "values": [
      {"measurement": "time at which brain levels are maximal", "setting": "[4]", "result": "1 to 4", "unit": "h"}
    ]}
  ]
}
